According to patent US11998591B2, “Method of treating diabetes type 2 by administering ultrarapid acting insulin” (MannKind Corporation, priority 2008, dated 2024):
Where two headings read alike, the source gives them in different places.

Assays:
[1] = test system: patients; conditions: gastrointestinal side-effects being a primary issue; cited from earlier work
[2] = cited from earlier work
[3] = test system: subjects with type 1 diabetes; assay: 52-week clinical trial: basal insulin + prandial TI Inhalation Powder vs basal insulin + SC insulin aspart; format: in vivo, human
From the text: A Prospective, Multi-Center, Open-Label, Randomized, Controlled Clinical Trial Comparing the Efficacy and Safety in Subjects with Type 1 Diabetes Receiving SC Basal Insulin and Prandial Inhalation of Insulin-FDKP Versus SC Basal and Prandial Insulin Over a 52-Week Treatment Period and a 4-Week Follow-Up
This was a prospective, multi-country, multicenter, open label, randomized, controlled clinical trial comparing glycemic control in subjects with type 1 diabetes receiving basal insulin and prandial insulin-FDKP (TI) Inhalation Powder (TI Inhalation Powder group) with subjects receiving basal insulin and SC rapid-acting insulin aspart (comparator group). This study included a 52-week treatment phase and a 4-week follow-up phase. During the 4-week follow-up phase, pulmonary function and select clinical laboratory assessments were scheduled.
The study began with enrollment at Week −3. Subjects received a complete battery of safety and eligibility assessments, including HbA1c and fasting plasma glucose (FPG).
At Week −1, subjects were randomized to one of the following 2 treatments: • Basal insulin+prandial TI Inhalation Powder • Basal insulin+prandial SC rapid-acting insulin
At Week −1, subjects again completed the first three components of the Insulin Treatment Questionnaire (ITQ) for the purpose of assessing test-retest reliability only). After completing the questionnaire, subjects randomized to the TI Inhalation Powder group were trained on the MEDTONE® Inhaler using TECHNOSPHERE®/insulin (insulin-FDKP) inhalation powder; subjects in the comparator group were trained in the use of the NOVOLOG® pens; all subjects were trained in administration of LANTUS®. Additionally, all subjects were trained on a blood glucose monitoring (HBGM) meter provided at the beginning of the trial and diary and received diabetes education. Any training was repeated at Week 0, if needed.
At the beginning of the treatment phase, subjects had several titration/dose evaluation visits to adjust insulin therapy. Titration visits occurred once a week for the first 4 weeks. During Weeks 4 through 10, there were three telephone “visits” (at Week 6, Week 8, and Week 10) to titrate dose, if necessary. However, dose titration was allowed throughout the trial.
All subjects completed a 7-point blood glucose profile on any 3 days during the week immediately preceding each visit from Week 0 to Week 52. The 7 time points included samples from before breakfast and 2 hours after breakfast, before the mid-day meal and 2 hours after the mid-day meal, before the evening meal and 2 hours after the evening meal and at bedtime (7 time points a day, over 3 days). These blood glucose (BG) values were recorded in the HBGM diary that was collected at clinic visits. The diaries for Weeks 4 through 10 (during dose titration) which were discussed over the telephone were collected at the next office visits.
A meal challenge test was performed at Week 4 (during dose titration), Week 26, and Week 52. Meal challenge venous blood sampling times were: −30, 0, 30, 60, 90, 105, 120, 180, 240, 300, and 360 minutes. Blood glucose (BG) was also measured using HBGM glucose meters to aid the Investigator in treatment decisions and values were obtained at −30, 0, 60, and 120 minutes during the meal challenge.
Treatments for glycemic control used in the trial were the following: prandial insulin-FDKP (TI) inhalation powder, prandial insulin aspart, and basal insulin glargine. Subjects assigned to the TI Inhalation Powder group (TI Inhalation Powder in combination with basal insulin therapy) received sc basal insulin glargine (LANTUS®) once daily (at bedtime) and inhaled TI Inhalation Powder 3 to 4 times a day, immediately before main meals or a snack as based upon clinical need. Adjustment of the TI Inhalation Powder dose and frequency of use to greater than 3 times a day was at the discretion of the Investigator. […]

[4] = test system: subjects with type 2 diabetes; format: in vivo, human
Protocol: The insulin-FDKP formulation is administered to the subjects by oral inhalation using a MEDTONE® dry powder inhaler (MannKind Corp.). Following the completion of the meal challenge, the data was analyzed as per the statistical analysis plan. […] The study was amended (A1) and included 12 subjects (10 were reenrolled from the first meal challenge), and only two treatments, which were 10 U lispro and 60 and 90 U TI. The doses were selected based on the relative bioavailability observed following the first meal challenge (OP), where under an assumption of linear kinetics, 10 U lispro and 60 U TI would result in similar exposure. The 90 U dose group was included to assess the effect of the highest dose group of TI studied in Phase 3 trials. Six of the 12 subjects received 60 U TI and the other 6 subjects received 90 U TI. All 12 subjects received 10 U lispro in a crossover fashion. Methods and results below are described in terms of the Original Protocol (OP), which includes the meal challenge in 18 subjects with three treatments (EXUBERA®, lispro and TI) and Amendment 1 (A1), which includes 12 subjects treated with only TI and lispro. […] The subjects were screened and evaluated before, during and after the experiments and their data analyzed as described below. Subjects were selected based on several key inclusion criteria, including, male and female, having ≥18 and ≤70 years of age with clinical diagnosis of type 2 diabetes mellitus for ≥12 months. The subjects selected for the study also had stable anti-diabetic regimen with insulin for the previous 3 months; HbA1c ≤8.5%; Body Mass Index (BMI) between ≤34 kg/m^2 and ≥25 kg/m^2; urine cotinine ≤100 ng/mL; […] Criteria for exclusion from the study also included unstable diabetes control and/or evidence of serious complications of diabetes (e.g., autonomic neuropathy); serum creatinine >1.8 mg/dL in female subjects and >2.0 mg/dL in male subjects. Other clinically important pulmonary disease was confirmed by documented history or pulmonary function testing. Under OP, the study was planned to be a randomized, open label, 3-way cross-over study. […] At this analysis all patients at least had completed the meal challenge visits and only those data have been used. The screening visit(s) (V1) occurred 1 to 21 days before the first treatment visit (V2) with 7 to 21 days elapsing between treatment-visits (V2, V3, and V4) for the meal challenge test. A minimum of 8 weeks elapsed between V4 and the next treatment visit, (V6). An additional safety visit (V5) was scheduled 1-3 days prior to the first of 3 glucose clamp procedures (V6). The glucose clamp procedure occurred at 3 visits, Visits V6, V7, and V8, with 7 to 21 days elapsing between the visits. […] Each treatment visit during the meal challenge had the subjects hospitalized in the clinical unit the night before initiation of treatment. […] Each subject followed the same randomization order for the glucose-clamp procedures as for the meal challenge tests. During the study, periodic blood draws for determination of pharmacokinetic and/or pharmacodynamic parameters, and safety were taken beginning at 12 hours prior to onset of the treatment regimens and meal challenge, and thereafter for a period of 8 hours. […] Meal Challenge Test: BOOST PLUS® (12 fl. oz.) consisting of 67.5 g carbohydrate, 21 g protein, 21 g fat, energy content 540 kcal was used for the meal challenge test. The BOOST PLUS® was enriched with U-^13C-glucose to determine the amount of absorbed glucose. Concurrent enriched continuous infusion of 6,6-^2H2 glucose was used to assess endogenous glucose production EGP. […] Under OP, the dose for insulin lispro was selected based on information obtained from the regulatory label. The dose selected for EXUBERA® was obtained by means of back calculation of the most commonly used dose information presented to the FDA Advisory Committee in the EXUBERA® Briefing Document. […]

[5] = test system: subjects with type 2 diabetes; format: in vivo, human; remark: listed apart in the source
Protocol: Following the completion of the meal challenge, the data was analyzed as per the statistical analysis plan. […] The study was amended (A1) and included 12 subjects (10 were reenrolled from the first meal challenge), and only two treatments, which were 10 U lispro and 60 and 90 U TI. The doses were selected based on the relative bioavailability observed following the first meal challenge (OP), where under an assumption of linear kinetics, 10 U lispro and 60 U TI would result in similar exposure. The 90 U dose group was included to assess the effect of the highest dose group of TI studied in Phase 3 trials. Six of the 12 subjects received 60 U TI and the other 6 subjects received 90 U TI. All 12 subjects received 10 U lispro in a crossover fashion. Methods and results below are described in terms of the Original Protocol (OP), which includes the meal challenge in 18 subjects with three treatments (EXUBERA®, lispro and TI) and Amendment 1 (A1), which includes 12 subjects treated with only TI and lispro. […] The subjects were screened and evaluated before, during and after the experiments and their data analyzed as described below. Subjects were selected based on several key inclusion criteria, including, male and female, having ≥18 and ≤70 years of age with clinical diagnosis of type 2 diabetes mellitus for ≥12 months. The subjects selected for the study also had stable anti-diabetic regimen with insulin for the previous 3 months; HbA1c ≤8.5%; Body Mass Index (BMI) between ≤34 kg/m^2 and ≥25 kg/m^2; urine cotinine ≤100 ng/mL; […] Criteria for exclusion from the study also included unstable diabetes control and/or evidence of serious complications of diabetes (e.g., autonomic neuropathy); serum creatinine >1.8 mg/dL in female subjects and >2.0 mg/dL in male subjects. Other clinically important pulmonary disease was confirmed by documented history or pulmonary function testing. Under A1, the study was planned to be a randomized, open label, 2-way cross-over study. […] Blood glucose concentrations were measured at regular intervals from arterialized venous blood samples. […]

[6] = subjects with type 1 diabetes, prescribing information
[7] = 52 weeks, with basal insulin glargine
[8] = OP: 45 U insulin-FDKP, 12 U SC lispro, 4 mg EXUBERA, FIG. 6

CN(C)C(=N)N=C(N)N [metformin]
Patients who cannot tolerate the drug, at least at dosages adequate for acceptable glycemic control [1]: Approximately 30%

Regular human insulin: regular human insulin preparations for subcutaneous injection, considered short acting
Duration of significant elevation or activity (as long as) ([2]; subcutaneous injection): 10 to 12 h
Time to reach maximal activity ([2]; subcutaneous injection): 2 to 4 h
Time to reach maximal blood insulin concentration ([2]; subcutaneous injection): 1 to 2 h

insulin aspart: SC rapid-acting insulin analog (NOVOLOG®), comparator in Example 2
Median Tmax [2, 6]: 0.667 to 0.833 h
Mean decrease in fasting plasma glucose (FPG) from baseline ([3]; 52-week treatment period, with basal insulin glargine): 23.4 (SD 103.1) mg/dL
Mean fasting plasma glucose (FPG) at the end of the treatment period [3, 7]: 161.3 (SD 68.2) mg/dL
Percentage of subjects whose HbA1c level decreased to ≤6.5% [3, 7]: 7.31%
Percentage of subjects whose HbA1c level decreased to ≤7.0% [3, 7]: 15.98%
Percentage of subjects whose HbA1c level decreased to ≤8.0% [3, 7]: 56.16%
HbA1c ([3]; Week 14, with basal insulin glargine): 8.07 (SD 1.09) %
Average body weight gain ([3]; over the 52-week treatment period): 1.4 kg

insulin glulisine: rapid acting insulin analog (APIDRA®)
Range of Tmax ([2]; both type 1 and type 2 populations, prescribing information): 0.667 to 2 h
Median Tmax [2, 6]: 1 h
Median Tmax ([2]; subjects with type 2 diabetes, prescribing information): 1.67 h

insulin lispro: rapid acting insulin analog, subcutaneously administered (HUMALOG®, Eli Lilly & Co.)
Tmax ([2]; prescribing information): 0.5 to 1.5 h
Time of peak inhibition of endogenous glucose production after treatment ([4]; OP: 45 U insulin-FDKP, 12 U SC lispro, 4 mg EXUBERA, FIG. 5): about 80 minutes
Time after dosing at which glucose disappearance rate peaked [4, 8]: about 120 minutes
Time post dosing at which glucose disappearance rate was substantial / departed from baseline [4, 8]: about 30 minutes
Time post-treatment at which (further) glucose infusion was needed to remain above 90 mg/dL ([4]; OP: 45 U insulin-FDKP, 12 U SC lispro, 4 mg EXUBERA, after the initial phase): ~3 h
Median tmax of insulin concentration ([4]; human, in vivo, sc, 4 mg): 1.25 h
Total insulin exposure, greater than following either 45 U insulin-FDKP (TI) or 4 mg EXUBERA ([4]; in vivo): approximately 40%
Time of peak inhibition of endogenous glucose production following dosing ([5]; 10 U lispro SC, FIG. 10): about 100 minutes
Time after dosing at which glucose disappearance rate peaked ([5]; 10 U lispro SC, FIG. 11): about 100 minutes
Median tmax of insulin concentration ([5]; human, in vivo, sc): 1 h
